Measurements reported in PubChem BioAssay (NCI).
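Test compounds were applied to cells in 96-well plates for 48 hours at 5 doses. Here, GI50 denotes the concentration required for 50% inhibition of growth. Definition used: TGI = concentration required for complete inhibition of growth.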

Assays:
Test in all cases: NCI-60 cell line screen, 48 h
[1] = tested on: LOX IMVI melanoma
[2] = tested on: A549 NSCLC
[3] = tested on: EKVX NSCLC
[4] = tested on: DU-145 prostate
[5] = tested on: SK-MEL-2 melanoma
[6] = tested on: COLO 205 colon
[7] = tested on: A498 renal
[8] = tested on: K-562 leukemia
[9] = tested on: OVCAR-8 ovarian
[10] = tested on: CAKI-1 renal

Row | Compound | GI50 [1] [µM] | TGI [1] [µM] | GI50 [2] [µM] | TGI [2] [µM] | GI50 [3] [µM] | TGI [3] [µM] | GI50 [4] [µM] | TGI [4] [µM] | GI50 [5] [µM] | TGI [5] [µM] | GI50 [6] [µM] | TGI [6] [µM] | GI50 [7] [µM] | TGI [7] [µM] | GI50 [8] [µM] | TGI [8] [µM] | GI50 [9] [µM] | TGI [9] [µM] | GI50 [10] [µM] | TGI [10] [µM]
1 | C[C@@H]1CC[C@@H]2[C@@H]1[C@H](OC(=O)c1ccc3ccccc3c1)[C@]1(C3CCCCC3)C[C@@H](OC(=O)CO)[C@@]2(C)O1 | 13.1 | 28.1 | 8.12 | 21.7 | 11.4 | 26.7 | 12.2 | 25.9 | 15.3 | 30.8 | 11.2 | 24.6 | 0.0191 | 0.0679 | 11.4 | 40.9 | 5.62 | 26.5 | 0.0391 | 10.9
2 | Cc1ccc(S(=O)(=O)NNC(C[N+](=O)[O-])c2ccccc2)cc1 (stereo not drawn) | – | > 100 | – | > 100 | – | > 100 | – | > 100 | – | 75 | – | 30.8 | – | 30.8 | – | > 100 | – | 46.1 | – | 47.7
3 | CC(C)c1ccc(/C=N/N=C(N)N)cc1 | 3.49 | 14.7 | 4.91 | 18.8 | 5.33 | 24.4 | 11.2 | 23.8 | 2.64 | 5.61 | 1.72 | 3.33 | 11.3 | 23.8 | 4.16 | 16.2 | 10.8 | 28.3 | 6.31 | 22
4 | COc1ccc(C2CC(c3cccc(OC)c3)=NN2C(=O)c2cc(OC)c(OC)c(OC)c2)cc1 (stereo not drawn) | 4.26 | > 100 | 2.25 | > 100 | 3.35 | > 100 | 2.66 | > 41.6 | 10.3 | > 100 | 1.19 | 5.53 | 1.12 | – | 0.431 | > 20.5 | 5.83 | > 100 | 1.22 | > 100
5 | CC(=O)OC1CC2(O)C(CCC3(C)C(c4ccc(=O)oc4)CCC32O)C2(C)CCC(OC3OC(CO)C(O)C(O)C3O)C=C12 (stereo not drawn) | 0.0275 | 0.109 | < 0.01 | 0.0278 | 0.0135 | 0.0419 | 0.0183 | 0.0594 | 0.0474 | 0.413 | 0.0554 | 0.274 | 0.0339 | 0.287 | 0.0295 | 0.175 | 0.0294 | 0.126 | 0.0306 | 0.131
6 | OCC#CCCCCOCC#Cc1ccccc1C#CCOCCCCC#CCO | 12.5 | 27.3 | 39.8 | > 100 | 17.8 | 41.3 | 17.6 | 41.3 | 51.1 | > 100 | 27.1 | > 100 | 4.35 | 34.3 | 22.3 | 65.6 | 52.3 | > 100 | 27.2 | 64.8
7 | NC(=S)N/N=C/c1ccc(OC(=O)COc2ccccc2)cn1 | 3.48 | > 100 | 30 | > 100 | 40 | > 100 | 2.72 | 8.96 | > 100 | > 100 | 33.3 | > 100 | 14.8 | 81 | 2.88 | > 100 | 3.26 | > 100 | 4.01 | > 100
8 | CSC(=NC#N)S/C=C/C(=O)c1cccc2ccccc12 | 20.5 | > 100 | 29.3 | > 100 | 26.4 | > 100 | 39.1 | > 100 | 34.3 | > 100 | 34.3 | > 100 | 40.2 | > 100 | 29.2 | > 100 | 31.9 | > 100 | 14.7 | 33.9
9 | N#CSCC1CC(O)(c2ccccc2)CC(c2ccc(Cl)cc2)O1 (stereo not drawn) | 1.59 | 2.95 | 3.74 | 17.3 | 4.19 | 17.7 | 2.18 | 4.72 | 1.89 | 3.78 | 1.91 | 3.92 | 1.88 | 8.63 | 2.41 | 9.77 | 1.98 | 3.94 | 3.2 | 9.51
10 | C=C1[C@@H](O)C[C@H]2C(C)(C)C[C@H](Cl)C[C@]2(C)[C@H]1C[C@H](O)[C@H]1CC(=O)NC1=O | < 0.0445 | 0.442 | 0.0117 | 0.145 | 0.0157 | 0.128 | 0.0166 | 0.165 | < 0.0111 | 0.0469 | < 0.01 | 0.0564 | 0.0207 | 0.0723 | 0.0121 | – | 0.0155 | 0.163 | 0.0418 | 1.59
11 | COc1ccc2c(c1)C(=O)c1c-2n(CCCN=[N+]=[N-])c(=O)c2cc(N)ccc12 | > 100 | > 100 | > 100 | > 100 | > 100 | > 100 | > 100 | > 100 | > 100 | > 100 | > 100 | > 100 | > 100 | > 100 | > 100 | > 100 | > 100 | > 100 | > 100 | > 100
12 | Cc1ccc(NC(=O)N2CCCCC2)cc1[N+](=O)[O-] | > 100 | > 100 | > 100 | > 100 | > 100 | > 100 | > 100 | > 100 | > 100 | > 100 | > 100 | > 100 | 87.8 | > 100 | > 100 | > 100 | > 100 | > 100 | > 100 | > 100
13 | COc1ccccc1Nc1nc2ccccc2c2occc12 | 9.28 | 17.4 | 14.6 | 41.4 | 11.9 | 28.1 | 16.9 | > 50 | 12 | 28.2 | 12.6 | > 50 | 21.2 | 43.1 | 12.9 | 28 | 17.6 | > 50 | 18 | > 50
14 | Cc1[nH]c(=O)nc(N/N=C/c2ccc(Cl)cc2)c1C(=O)Nc1ccc(Cl)cc1 | – | > 90.8 | – | > 63.1 | – | > 100 | – | > 100 | – | > 100 | – | > 88.1 | – | 57.2 | – | > 85.1 | – | 37.5 | – | > 90.9
